Assays:
IDO1 [1] = biological target: T1, IDO1 (Homo sapiens, UniProt P14902); assay: IDO1 cellular assay in Hela cells stimulated with IFNγ; assay type: cell-based; conditions: IFNγ 100 ng/mL, 300 uM L-tryptophan, about 48 hours, fluorescence readout
IDO1 [2] = biological target: T1, IDO1; assay: IDO1 HEK293 cellular assay; assay type: cell-based; conditions: HEK293 cells transfected with Flag-IDO1 vector, 20-24 hours, fluorescence readout
Protocol: IDO1 HEK293 Cellular Assay
Compounds to be tested were serially diluted in ten 3-fold steps in DMSO starting from 10 mM DMSO stocks. Compound dilutions or DMSO alone were then dispensed from the dilution plate into a Greiner black 384-well assay plate (catalog #781086) using an Echo 550 acoustic liquid handler (Labcyte).
HEK293 cell pellets were resuspended to 5×10^5 cells/mL in complete HEK293 culture media (89% DMEM, 10% FBS, 1% penicillin/streptomycin). Suspended cells (2 mL) were dispensed into each well of a 6-well Corning plate (Catalog # 3516). Cells were allowed to attach and were incubated for 20 hours at 37° C. in a 5% CO2 incubator. Flag-IDO1 vector (Genscript True ORF Gold, 2 ug) in 150 uL of Opti-MEM medium was added to each well of a Corning 24 well plate (Cat # 3527) and incubated for 5 minutes at room temperature. To each well of the 24-well plate was added […] Lipofectamine 2000 (Gibco) and the plate incubated at room temperature for 20-30 minutes. To each well of attached cells in the 6-well plate, […] of the transfection mix from the 24-well plate was gently added to each well and IDO1 protein was allowed to express for 24-30 hours at 37 degrees Celsius in a 5% CO2 incubator.
Media was removed from the cells which were then washed with 2 mL Dulbecco's phosphate-buffered saline (DPBS). After removal of DPBS, 0.5 mL of TrypLE (Gibco) was added and incubated at 5 minutes until cells lift from the surface of the wells. Complete HEK293 culture media (4 mL) was added to each well and cells were collected and pooled into a conical tube. Cells were pelleted at 200×g for 5 minutes and resuspended in an equal volume of complete DMEM medium. Cells were diluted to 4×10^5 cells per mL in complete HEK293 media. L-Tryptophan was added to added to give a final concentration of […]. The diluted transfected cells […] or nontransfected cells […] were dispensed into wells of Greiner black 384-well assay plates (catalog #781086) containing previously diluted compounds. The plate is briefly mixed and centrifuged at 200×g for 10 seconds to collect cells at the bottom of the plate. Plates were covered and incubated for 20-24 hours at 37 degrees C. in a 5% CO2 incubator. Afterwards […] of 0.5 M methyl isonipecotate in dimethyl sulfoxide was added to each well, mixed, sealed, and centrifuged at 500 rpm for 10 seconds. Plates were incubated at 37 degrees in a 5% CO2 incubator overnight to develop fluoresence. The plates are allowed to cool and then centrifuged for 1 minute at 1000×g. The resulting fluoresence was measured in an Envision plate reader (Perkin Elmer) with a 400/25 nm excitation filter and an 510/20 nm emission filter.
The fluoresence intensity of each well was corrected for the background observed in wells with untransfected cells and was expressed as a fraction of the intensity observed in wells of IDO1 transfected cells and DMSO only. Potencies were calculated by linear least squares fit to the four parameter logistic IC50 equation.

T1 sequence (P14902 whole entry): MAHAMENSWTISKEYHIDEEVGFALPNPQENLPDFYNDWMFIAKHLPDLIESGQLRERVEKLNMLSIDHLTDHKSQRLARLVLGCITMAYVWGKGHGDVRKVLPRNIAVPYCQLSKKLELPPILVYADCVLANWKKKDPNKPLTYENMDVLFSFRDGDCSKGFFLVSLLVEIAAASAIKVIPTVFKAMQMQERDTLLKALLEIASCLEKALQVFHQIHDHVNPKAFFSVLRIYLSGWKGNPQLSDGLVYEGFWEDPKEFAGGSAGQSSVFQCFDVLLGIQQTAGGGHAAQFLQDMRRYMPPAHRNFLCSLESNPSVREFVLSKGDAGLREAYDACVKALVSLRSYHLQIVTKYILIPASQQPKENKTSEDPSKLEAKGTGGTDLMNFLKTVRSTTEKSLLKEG

## O=C(Nc1ccc(C2(C(=O)Nc3ccc(F)cc3)CCC2)cn1)C1CCCCC1 [Example 15, N-(5-{1-[(4-fluorophenyl)carbamoyl]cyclobutyl}pyridin-2-yl) cyclohexanecarboxamide]
IDO1 [1]
  IC50: 10 nM
IDO1 [2]
  IC50: 7 nM

— patent US11111232B2, “Substituted cyclobutylpyridine and cyclobutylpyrimidine compounds as indoleamine 2,3-dioxygenase (IDO) inhibitors” (MERCK SHARP & DOHME CORP., priority 2017, dated 2021)
